PubChem BioAssay AID1259407 (Chemical Carcinogenesis Research Information System (CCRIS), 2018)
The source made the active and inactive calls. No rule for the calls is given here.

System: CCRIS mutagenicity, Ames/micronucleus/aberration tests
Experiment: CCRIS mutagenicity studies
[1] = Test System: AMES SALMONELLA TYPHIMURIUM, Strain/Indicator: TA98, Metabolic Activation: NONE, Method: PREINCUBATION
[2] = Test System: AMES SALMONELLA TYPHIMURIUM, Strain/Indicator: TA100, Metabolic Activation: NONE, Method: PREINCUBATION
[3] = Test System: AMES SALMONELLA TYPHIMURIUM, Strain/Indicator: TA98, Metabolic Activation: NONE, Method: STANDARD PLATE
[4] = Test System: AMES SALMONELLA TYPHIMURIUM, Strain/Indicator: TA100, Metabolic Activation: NONE, Method: STANDARD PLATE

Measured: mutagenic call

O=C(O)c1c(Cl)cccc1Cl
inactive: [1] inactive; negative | Test System: AMES SALMONELLA TYPHIMURIUM, Strain/Indicator: TA98, Metabolic Activation: RAT LIVER S-9, PCB, Method: PREINCUBATION inactive; negative | [2] inactive; negative | Test System: AMES SALMONELLA TYPHIMURIUM, Strain/Indicator: TA100, Metabolic Activation: RAT LIVER S-9, PCB, Method: PREINCUBATION inactive; negative | Test System: AMES SALMONELLA TYPHIMURIUM, Strain/Indicator: TA104, Metabolic Activation: NONE, Method: PREINCUBATION inactive; negative | Test System: AMES SALMONELLA TYPHIMURIUM, Strain/Indicator: TA104, Metabolic Activation: RAT LIVER S-9, PCB, Method: PREINCUBATION inactive; negative | Test System: E.COLI, Strain/Indicator: WP2 UVRA, Metabolic Activation: NONE, Method: PREINCUBATION inactive; negative | Test System: E.COLI, Strain/Indicator: WP2 UVRA, Metabolic Activation: RAT LIVER S-9, PCB, Method: PREINCUBATION inactive; negative

C[C@@H]1NCCc2cc(O)c(O)cc21
inactive: End Point: IN VITRO CHROMOSOMAL ABERRATIONS, Test System: CHL FIBROBLAST CELLS, Metabolic Activation: RAT, LIVER, S-9 (5%) inactive; negative
active: End Point: IN VITRO CHROMOSOMAL ABERRATIONS, Test System: CHL FIBROBLAST CELLS, Metabolic Activation: NONE active; positive

[N-]=[N+]=NCC[C@H](N)C(=O)O
active: Test System: AMES SALMONELLA TYPHIMURIUM, Strain/Indicator: TA1530, Metabolic Activation: NONE, Method: STANDARD PLATE active; positive

Nc1ccc(S(=O)(=O)c2ccc(N)cc2)cc1
inactive: [1] inactive; negative | [3] inactive; negative | Test System: AMES SALMONELLA TYPHIMURIUM, Strain/Indicator: TA98, Metabolic Activation: RAT, LIVER, S-9, PCB, Method: STANDARD PLATE inactive; negative | [2] inactive; negative | [4] inactive; negative | Test System: AMES SALMONELLA TYPHIMURIUM, Strain/Indicator: TA100, Metabolic Activation: RAT, LIVER, S-9, PCB, Method: STANDARD PLATE inactive; negative | Test System: E. COLI, Strain/Indicator: WP2 UVRA, Metabolic Activation: HAMSTER, LIVER, S-9, AROCLOR 1254, Method: STANDARD PLATE inactive; negative | Test System: E. COLI, Strain/Indicator: WP2 UVRA, Metabolic Activation: HAMSTER, LIVER, S-9, Method: STANDARD PLATE inactive; negative | Test System: E. COLI, Strain/Indicator: WP2 UVRA, Metabolic Activation: MOUSE, LIVER, S-9, AROCLOR 1254, Method: STANDARD PLATE inactive; negative | Test System: E. COLI, Strain/Indicator: WP2 UVRA, Metabolic Activation: MOUSE, LIVER, S-9, Method: STANDARD PLATE inactive; negative | Test System: E. COLI, Strain/Indicator: WP2 UVRA, Metabolic Activation: NONE, Method: STANDARD PLATE inactive; negative | Test System: E. COLI, Strain/Indicator: WP2 UVRA, Metabolic Activation: RAT, LIVER, S-9, AROCLOR 1254, Method: STANDARD PLATE inactive; negative | Test System: E. COLI, Strain/Indicator: WP2 UVRA, Metabolic Activation: RAT, LIVER, S-9, Method: STANDARD PLATE inactive; negative

O=[N+]([O-])c1ccc2oc3ccccc3c2c1
active: Test System: AMES SALMONELLA TYPHIMURIUM, Strain/Indicator: TA98(1,8-DNP6), Metabolic Activation: NONE, Method: PREINCUBATION active; positive | Test System: AMES SALMONELLA TYPHIMURIUM, Strain/Indicator: TA98(1,8-DNP6), Metabolic Activation: NONE, Method: SUSPENSION active; positive | Test System: AMES SALMONELLA TYPHIMURIUM, Strain/Indicator: TA98(1,8-DNP6), Metabolic Activation: RAT, LIVER, S-9, PCB (5%), Method: PREINCUBATION active; positive | Test System: AMES SALMONELLA TYPHIMURIUM, Strain/Indicator: TA98(NR), Metabolic Activation: NONE, Method: PREINCUBATION active; positive | Test System: AMES SALMONELLA TYPHIMURIUM, Strain/Indicator: TA98(NR), Metabolic Activation: RAT, LIVER, S-9 (10%), Method: PREINCUBATION active; positive | Test System: AMES SALMONELLA TYPHIMURIUM, Strain/Indicator: TA98(NR), Metabolic Activation: RAT, LIVER, S-9, 3-METHYLCHOLANTHRENE (10%), Method: PREINCUBATION active; positive | Test System: AMES SALMONELLA TYPHIMURIUM, Strain/Indicator: TA98(NR), Metabolic Activation: RAT, LIVER, S-9, BETA-NAPHTHOFLAVONE (10%), Method: PREINCUBATION active; positive | Test System: AMES SALMONELLA TYPHIMURIUM, Strain/Indicator: TA98(NR), Metabolic Activation: RAT, LIVER, S-9, PCB (5%), Method: PREINCUBATION active; positive | Test System: AMES SALMONELLA TYPHIMURIUM, Strain/Indicator: TA98(NR), Metabolic Activation: RAT, LIVER, S-9, PCB (10%), Method: PREINCUBATION active; positive | Test System: AMES SALMONELLA TYPHIMURIUM, Strain/Indicator: TA98(NR), Metabolic Activation: RAT, LIVER, S-9, PHENOBARBITAL (10%), Method: PREINCUBATION active; positive | [1] active; positive | Test System: AMES SALMONELLA TYPHIMURIUM, Strain/Indicator: TA98, Metabolic Activation: NONE, Method: SUSPENSION active; positive | Test System: AMES SALMONELLA TYPHIMURIUM, Strain/Indicator: TA98, Metabolic Activation: RAT, LIVER, S-9, PCB (5%), Method: PREINCUBATION active; positive | Test System: AMES SALMONELLA TYPHIMURIUM, Strain/Indicator: TA98, Metabolic Activation: RAT, LIVER, S-9, PCB, Method: SUSPENSION active; positive
inactive: Test System: AMES SALMONELLA TYPHIMURIUM, Strain/Indicator: TA98(NR), Metabolic Activation: NONE, Method: SUSPENSION inactive; negative | [2] inactive; negative | Test System: AMES SALMONELLA TYPHIMURIUM, Strain/Indicator: TA100, Metabolic Activation: NONE, Method: SUSPENSION inactive; negative | Test System: AMES SALMONELLA TYPHIMURIUM, Strain/Indicator: TA100, Metabolic Activation: RAT, LIVER, S-9, PCB (5%), Method: PREINCUBATION inactive; negative | Test System: AMES SALMONELLA TYPHIMURIUM, Strain/Indicator: TA100, Metabolic Activation: RAT, LIVER, S-9, PCB, Method: SUSPENSION inactive; negative

CC(C)(C)OC(=O)O/N=C(/C#N)c1ccccc1
inactive: [3] inactive; negative | Test System: AMES SALMONELLA TYPHIMURIUM, Strain/Indicator: TA98, Metabolic Activation: RAT, LIVER, S-9, AROCLOR 1254, Method: STANDARD PLATE inactive; negative | [4] inactive; negative | Test System: AMES SALMONELLA TYPHIMURIUM, Strain/Indicator: TA100, Metabolic Activation: RAT, LIVER, S-9, AROCLOR 1254, Method: STANDARD PLATE inactive; negative | Test System: AMES SALMONELLA TYPHIMURIUM, Strain/Indicator: TA1535, Metabolic Activation: NONE, Method: STANDARD PLATE inactive; negative | Test System: AMES SALMONELLA TYPHIMURIUM, Strain/Indicator: TA1535, Metabolic Activation: RAT, LIVER, S-9, AROCLOR 1254, Method: STANDARD PLATE inactive; negative | Test System: AMES SALMONELLA TYPHIMURIUM, Strain/Indicator: TA1537, Metabolic Activation: NONE, Method: STANDARD PLATE inactive; negative | Test System: AMES SALMONELLA TYPHIMURIUM, Strain/Indicator: TA1537, Metabolic Activation: RAT, LIVER, S-9, AROCLOR 1254, Method: STANDARD PLATE inactive; negative
